Patent US20250034254A1, “USE OF ANTI-PD-1 ANTIBODY IN COMBINATION WITH CHEMOTHERAPY IN TREATING ESOPHAGEAL CANCER” (SHANGHAI JUNSHI BIOSCIENCES CO., LTD., priority 2021, published 2025)

Columns and labels:
[1] = Phase III clinical study of toripalimab (JS001) or placebo in combination with first-line chemotherapy: safety (SS population); details: human, in vivo
Excerpt: (§1) This is a randomized, double-blind, placebo-controlled, multicenter, phase III clinical study evaluating the efficacy and safety of toripalimab (JS001) or placebo in combination with first-line chemotherapy in patients with advanced or metastatic esophageal squamous cell carcinoma that are not previously treated with systemic chemotherapy and exploring the population with optimal biomarker prediction.
(§2) Approximately 514 patients with advanced or metastatic esophageal squamous cell carcinoma were randomized into two groups in a ratio of 1:1, with the treatment group receiving toripalimab in combination with first-line chemotherapy and the control group receiving placebo in combination with first-line chemotherapy. The patients were stratified by ECOG score (0 vs 1) and previous radiotherapy (present vs absence).
(§3) After randomization, the patients were subject to combination chemotherapy, receiving toripalimab or placebo+first-line chemotherapy for up to 6 cycles. After that, the patients were subject to maintenance therapy, continuously receiving toripalimab or placebo treatment until disease progression, intolerable toxicity, withdrawal from the study or up to 2 years.
(§4) Toripalimab 240 mg/placebo was administered by intravenous infusion once every three weeks (Q3W) in treatment cycles of 21 days. Treatment continued until the patients met the discontinuation criteria, i.e., recorded disease progression, unacceptable AE, investigator-assessed unsuitability for continued treatment, withdrawal of informed consent, 2 years of JS001 treatment or other reasons as specified in the protocol.
(§5) Intent-to-Treat (ITT) set: including all randomized patients during the primary study period. This analysis set was used as the primary analysis set for efficacy analysis. Per protocol set (PPS): including all ITT population having valid baseline information without major violation to the protocol that may affect the efficacy analysis. The PPS population was determined based on actual protocol violations before database lock of the study. The PPS population was used for sensitivity analysis of the primary efficacy endpoints as well as part of the secondary efficacy endpoints. Safety analysis set (SS): including all patients who received at least one dose of the study drug (JS001/placebo/chemotherapeutic agent).
All safety analyses were based on the SS population (514 patients), including 257 patients in the treatment group and 257 patients in the control group. Both groups were sufficiently exposed to JS001+chemotherapy treatment or placebo+chemotherapy treatment. The primary safety analysis results based on the SS population in the double-blind phase of the primary study are as follows: […]

[2] = system: patients with advanced or metastatic esophageal squamous cell carcinoma; assay: Phase III clinical study of toripalimab (JS001) or placebo in combination with first-line chemotherapy: efficacy (ITT, RECIST 1.1); assay type: in vivo, human; details: for Objective response rate (ORR) / Objective response rate (ORR), number of subjects: RECIST 1.1; for DCR inter-group difference (95% CI) / ORR inter-group difference (95% CI): JS001 + TP versus Placebo + TP; for Duration of response (DOR), median: patients with BOR of CR or PR
Excerpt: as §1
Eligible subjects shall meet the following criteria: (1) aged between 18 and 75 years; (2) histologically or pathologically confirmed metastatic or relapsed esophageal squamous cell carcinoma; (3) previously not treated for relapsed or metastatic ESCC; (4) at least one measurable lesion (according to RECIST 1.1); (5) an ECOG score of 0 or 1; (6) normal organ functions.
as §2, §3, §4
as §4, with “Toripalimab injection” for “Toripalimab”, “Q3W” for “once every three weeks (Q3W)”, “patient” for “patients”, “AEs,” for “AE,”
The patients received JS001/placebo+first-line chemotherapy during the combination chemotherapy period (up to 6 cycles). After that, the patients were subject to maintenance monotherapy, continuously receiving JS001/placebo treatment until disease progression, intolerable toxicity, withdrawal from the study or up to 2 years.
as §5
Unless otherwise specified, the efficacy analysis was based on the ITT set by treatment. […]

[3] = BICR-assessed, listed as treatment group
[4] = ITT, as of Mar. 22, 2021, median follow-up 7.343 months
[5] = ITT, assessed by the investigator

For “JS001 + TP: toripalimab 240 mg Q3W in combination with first-line chemotherapy TP (paclitaxel 175 mg/m^2 + cisplatin 75 mg/m^2)”, the “SAE: anemia” value [1] was 1.2%, the “SAE: asthenia” value [1] was 1.2% and the “SAE: bone marrow depression” value [1] was 1.2%. For the same substance, the “SAE: decreased leukocyte count” value [1] was 2.3%, the “SAE: decreased neutrophil count” value [1] was 1.6% and the “SAE: decreased platelet count” value [1] was 1.6%. The “SAE: dysphagia” value [1] was 1.2%, the “SAE: infectious pneumonitis” value [1] was 5.1% and the “SAE: vomiting” value [1] was 8.9%. For the same substance, the “TEAE: alopecia” value [1] was 35.4%, the “TEAE: anemia” value [1] was 77.0% and the “TEAE: asthenia” value [1] was 41.6%. For the same substance, the “TEAE: constipation” value [1] was 24.1%, the “TEAE: decreased appetite” value [1] was 39.3% and the “TEAE: decreased leukocyte count” value [1] was 67.7%. For the same substance, the “TEAE: decreased neutrophil count” value [1] was 66.9%, the “TEAE: decreased platelet count” value [1] was 28.4% and the “TEAE: diarrhea” value [1] was 23.0%. The “TEAE: nausea” value [1] was 42.8%, the “TEAE: vomiting” value [1] was 40.1% and the “TEAE: weight loss” value [1] was 28.8%. For the same substance, the “immune-related adverse events (irAEs), % of patients” value [1] was 37%, the “immune-related adverse events (irAEs), number of patients” value [1] was 95 and the “irAE resulting in death” value [1] was “no irAE resulting in death was reported”. For the same substance, the “irAEs of grade 3 or higher, % of subjects” value [1] was 6.6%, the “irAEs of grade 3 or higher, number of subjects” value [1] was 17 and the “proportion of SAEs of grade 3 or higher as per CTCAE” value [1] was 30.0%. For the same substance, the “proportion of TEAEs of grade 3 or higher as per CTCAE” value [1] was 73.2%, the “proportion of patients who experienced at least 1 TEAE” value [1] was 99.2% and the “proportion of treatment-emerged SAEs” value [1] was 36.2%. The “6-month DOR” value ([2]; BICR-assessed) was 47.4%, the “12-month DOR (1-year DOR rate)” value ([2]; BICR-assessed) was 28.2% and the “Best overall response: Complete response (CR)” value ([2]; BICR-assessed) was “(11.7) %”. The “Best overall response: Complete response (CR), number of subjects” value ([2]; BICR-assessed) was 30, the “Best overall response: Not applicable, number of subjects” value ([2]; BICR-assessed) was 0 and the “Best overall response: Not evaluable (NE), number of subjects” value ([2]; BICR-assessed) was 0. For the same substance, the “Best overall response: Partial response (PR)” value ([2]; BICR-assessed) was “(57.6) %”, the “Best overall response: Partial response (PR), number of subjects” value ([2]; BICR-assessed) was 148 and the “Best overall response: Progressive disease (PD)” value ([2]; BICR-assessed) was “(7.0) %”. For the same substance, the “Best overall response: Progressive disease (PD), number of subjects” value ([2]; BICR-assessed) was 18, the “Best overall response: Stable disease (SD), number of subjects” value ([2]; BICR-assessed) was 51 and the “Best overall response: non-CR/non-PD” value ([2]; BICR-assessed) was “(0.4) %”. The “Best overall response: non-CR/non-PD, number of subjects” value ([2]; BICR-assessed) was 1, the “DOR HR (95% CI)” value ([2]; BICR-assessed) was 0.58 (0.412, 0.810), P = 0.00136 and the “Disease control rate (DCR)” value ([2]; BICR-assessed) was 89.1%. The “Disease control rate (DCR), number of subjects” value ([2]; BICR-assessed) was 229, the “Objective response rate (ORR)” value ([2]; BICR-assessed) was 69.3% and the “Objective response rate (ORR), number of subjects” value ([2]; BICR-assessed) was 178. For the same substance, the “DCR inter-group difference (95% CI)” value ([2]; BICR-assessed) was 7.1 (1.1, 13.1) %, the “ORR inter-group difference (95% CI)” value ([2]; BICR-assessed) was 17.2 (9.0, 25.4) % and the “ORR inter-group difference (95% CI)” value [2, 3] was 17.2%. The “DOR HR (95% CI)” value [2, 3] was 0.58, the “Duration of response (DOR), median” value ([2]; BICR-assessed) was 5.6 month and the PFS subpopulation analysis ([2]; BIRC, ECOG score, previous radiotherapy, disease stage, PD-L1 expression, 11q13, TMB subpopulations) was “superiority in PFS”. For the same substance, the OS subpopulation analysis ([2]; ECOG score, previous radiotherapy, disease stage, PD-L1 expression, 11q13, TMB subpopulations) was “superiority in OS”, the “OS hazard ratio (HR), treatment vs control group” value ([2]; ITT population) was 0.58 and the “median OS” value ([2]; ITT population) was 17.0 months. For the same substance, the “prolongation of median OS versus chemotherapy” value ([2]; ITT population) was 6 months, the “reduction of death hazard versus chemotherapy” value ([2]; ITT population) was 42% and the “deaths reported, % of patients” value [2, 4] was 27.2%. For the same substance, the “deaths reported, number of patients” value [2, 4] was 70, the “1-year PFS rate” value ([2]; ITT, assessed by BIRC) was 27.8% and the “PFS hazard ratio (HR), treatment vs control group” value ([2]; ITT, assessed by BIRC) was 0.58. The “reduction of progression or death hazard versus chemotherapy” value ([2]; ITT, assessed by BIRC) was 42%, the “median PFS” value ([2]; ITT, assessed by BIRC based on RECIST 1.1) was 5.7 months and the “PFS hazard ratio (HR), treatment vs control group” value [2, 5] was 0.58. For the same substance, the “reduction of progression or death hazard versus chemotherapy” value [2, 5] was 42%, the “median PFS” value ([2]; ITT, assessed by the investigator based on RECIST 1.1) was 7.0 months and the “6-month DOR” value ([2]; Investigator-assessed) was 55.6%. The “12-month DOR” value ([2]; Investigator-assessed) was 30.9%, the “Best overall response: Complete response (CR)” value ([2]; Investigator-assessed) was “(5.1) %” and the “Best overall response: Complete response (CR), number of subjects” value ([2]; Investigator-assessed) was 13. The “Best overall response: Not evaluable (NE), number of subjects” value ([2]; Investigator-assessed) was 0, the “Best overall response: Partial response (PR)” value ([2]; Investigator-assessed) was “(67.3) %” and the “Best overall response: Partial response (PR), number of subjects” value ([2]; Investigator-assessed) was 173. The “Best overall response: Progressive disease (PD)” value ([2]; Investigator-assessed) was “(3.9) %”, the “Best overall response: Progressive disease (PD), number of subjects” value ([2]; Investigator-assessed) was 10 and the “Best overall response: Stable disease (SD), number of subjects” value ([2]; Investigator-assessed) was 52. For the same substance, the “DOR HR (95% CI)” value ([2]; Investigator-assessed) was 0.50 (0.359, 0.684), P = 0.00001, the “Disease control rate (DCR)” value ([2]; Investigator-assessed) was 92.6% and the “Disease control rate (DCR), number of subjects” value ([2]; Investigator-assessed) was 238. For the same substance, the “Objective response rate (ORR)” value ([2]; Investigator-assessed) was 72.4%, the “Objective response rate (ORR), number of subjects” value ([2]; Investigator-assessed) was 186 and the “DCR inter-group difference (95% CI)” value ([2]; Investigator-assessed) was 5.5 (0.3, 10.7) %. For the same substance, the “ORR inter-group difference (95% CI)” value ([2]; Investigator-assessed) was 14.1 (6.0, 22.2) %, the “ORR inter-group difference (95% CI)” value ([2]; Investigator-assessed, listed as treatment group) was 14% and the “Duration of response (DOR), median” value ([2]; Investigator-assessed) was 4.2 month. The “prolongation of DOR over the control group” value ([2]; assessed by BIRC) was 1.4 months.
